Series [1] relates to suckers on tobacco plant. Briefly: Use of pelargonic acid for inhibiting the growth of suckers (Example 1, FIG. 1). It is filed as in vivo, tobacco plant of the Burley variety. To be noted: Burley tobacco; pelargonic acid applied at 0.5 g/l to 50.0 g/l; FIG. 1B. The source says: To better exemplify reference is made to FIGS. 1A and 1B, which show a tobacco plant (100) of the Burley variety. […] It can be observed that at full floral development (i.e. ˜3 to 4 months) suckers (150) started to proliferate and grew into auxiliary stems.

For series [2], the system named is suckers on tobacco plants. Briefly: Treatment of tobacco plants with pelargonic acid: sucker growth inhibition (Example 3). Format: in vivo, tobacco plants of the Burley and Virginia. To be noted: PA 3.4, 5.1, 6.8 g/l; V 450-460 l/ha; interval of 7 days between treatments; across all plants. How it is done:
(§1) In an experimental embodiment tobacco plants of the Burley and Virginia were treated with a Volume (V) of 450-460l/ha with a composition comprising pelargonic acid (PA) at different concentrations (e.g., 3.4 g/l, 5.1 g/l and 6.8 g/l) with an interval of 7 days between treatments; the exact experimental details can be found in Table 1.

The subject of series [3] is tobacco plants. Kind of series: Treatment of tobacco plants with pelargonic acid: phytotoxicity (Example 3). It is filed as in vivo, tobacco plants of the Burley and Virginia. As to conditions: PA 3.4, 5.1, 6.8 g/l; V 450-460 l/ha; interval of 7 days between treatments. How it is done: as §1

Each structure is given as a SMILES string.

Consider `CCCCCCCCC(=O)O` [pelargonic acid], for which the sucker growth entry in series [1] was “fully inhibited”. This compound showed a sucker growth inhibition in series [2] of over 90%. In addition, the “phytotoxicity or adverse ecological effects” value in series [3] is reported as “no phytotoxicity or adverse ecological effects were observed”.

Source of the values: patent US11395488B2, “Use of compositions comprising pelargonic acid and specific non ionic surfactants for inhibiting the growth of suckers on plants” (BELCHIM CROP PROTECTION NV, priority 2016, dated 2022).
